In ChEMBL document CHEMBL1145467, “SME-2-producing Serratia marcescens isolate from Switzerland” (2007):
Values after ≈ are worked out from the molar mass of the structure shown.

tested on: Serratia marcescens; assay: Antimicrobial activity against Serratia marcescens AW isolated from parotidectomy patient; assay type: functional

Row | MIC | Structure (SMILES)
1 | 4 µg/mL (≈ 8.41 µM) | C[C@@H](O)[C@H]1C(=O)N2C(C(=O)O)=C(S[C@@H]3CN[C@H](C(=O)Nc4cccc(C(=O)O)c4)C3)[C@H](C)[C@H]12 [ERTAPENEM]
2 | 32 µg/mL (≈ 107 µM) | C[C@@H](O)[C@H]1C(=O)N2C(C(=O)O)=C(SCCNC=N)C[C@H]12 [IMIPENEM ANHYDROUS]
3 | 8 µg/mL (≈ 20.9 µM) | C[C@@H](O)[C@H]1C(=O)N2C(C(=O)O)=C(S[C@@H]3CN[C@H](C(=O)N(C)C)C3)[C@H](C)[C@H]12 [MEROPENEM]
